Key:
Assay type in all cases: cell-based
CCRF-CEM = experiment: cells; details: CCRF-CEM (Leukemia), 10 μM, 48 hours
HL-60 (TB) = experiment: cells; details: HL-60 (TB) (Leukemia), 10 μM, 48 hours
SR = experiment: cells; details: SR (Leukemia), 10 μM, 48 hours
A549/ATCC = experiment: cells; details: A549/ATCC (Non-Small Cell Lung Cancer), 10 μM, 48 hours
EKVX = experiment: NCI cancer cell cytotoxicity assay, Non-Small Cell Lung Cancer EKVX; details: 10 μM, 48 hours
HOP-62 = experiment: cells; details: HOP-62 (Non-Small Cell Lung Cancer), 10 μM, 48 hours
HOP-92 = experiment: cells; details: HOP-92 (Non-Small Cell Lung Cancer), 10 μM, 48 hours
NCI-H23 = experiment: cells; details: NCI-H23 (Non-Small Cell Lung Cancer), 10 μM, 48 hours
NCI-H322M = experiment: cells; details: NCI-H322M (Non-Small Cell Lung Cancer), 10 μM, 48 hours
NCI-H460 = experiment: cells; details: NCI-H460 (Non-Small Cell Lung Cancer), 10 μM, 48 hours
NCI-H522 = experiment: cells; details: NCI-H522 (Non-Small Cell Lung Cancer), 10 μM, 48 hours
COLO 205 = experiment: cells; details: COLO 205 (Colon Cancer), 10 μM, 48 hours
HCC-2998 = experiment: cells; details: HCC-2998 (Colon Cancer), 10 μM, 48 hours
HCT-116 = experiment: cells; details: HCT-116 (Colon Cancer), 10 μM, 48 hours
SF-268 = experiment: cells; details: SF-268 (CNS Cancer), 10 μM, 48 hours
SF-295 = experiment: cells; details: SF-295 (CNS Cancer), 10 μM, 48 hours
SF-539 = experiment: cells; details: SF-539 (CNS Cancer), 10 μM, 48 hours
LOX IMVI = experiment: cells; details: LOX IMVI (Melanoma), 10 μM, 48 hours
M14 = experiment: cells; details: M14 (Melanoma), 10 μM, 48 hours
SK-MEL-2 = experiment: cells; details: SK-MEL-2 (Melanoma), 10 μM, 48 hours
SK-MEL-5 = experiment: cells; details: SK-MEL-5 (Melanoma), 10 μM, 48 hours
OVCAR-3 = experiment: cells; details: OVCAR-3 (Ovarian Cancer), 10 μM, 48 hours
OVCAR-5 = experiment: cells; details: OVCAR-5 (Ovarian Cancer), 10 μM, 48 hours
OVCAR-8 = experiment: cells; details: OVCAR-8 (Ovarian Cancer), 10 μM, 48 hours
NCI/ADR-RES = experiment: cells; details: NCI/ADR-RES (Ovarian Cancer), 10 μM, 48 hours
CAKI-1 = experiment: cells; details: CAKI-1 (Renal Cancer), 10 μM, 48 hours
TK-10 = experiment: cells; details: TK-10 (Renal Cancer), 10 μM, 48 hours
PC-3 = experiment: cells; details: PC-3 (Prostate Cancer), 10 μM, 48 hours
DU-145 = experiment: cells; details: DU-145 (Prostate Cancer), 10 μM, 48 hours
MDA-MB-231/ATCC = experiment: cells; details: MDA-MB-231/ATCC (Breast Cancer), 10 μM, 48 hours
HS 578T = experiment: cells; details: HS 578T (Breast Cancer), 10 μM, 48 hours
BT-549 = experiment: cells; details: BT-549 (Breast Cancer), 10 μM, 48 hours

Compound: O=C1c2cc(Cl)ccc2-c2c(Cl)nc3ccccc3c21 [TC-XCl-1, 6,9-Dichloro-11H-indeno[1,2-c]quinolin-11-one]
- growth percentage (CCRF-CEM): 64.86%
- growth percentage (HL-60 (TB)): 102.00%
- growth percentage (SR): 65.85%
- growth percentage (A549/ATCC): 108.98%
- growth percentage (EKVX): 79.27%
- growth percentage (HOP-62): 94.89%
- growth percentage (HOP-92): 71.94%
- growth percentage (NCI-H23): 79.30%
- growth percentage (NCI-H322M): 95.38%
- growth percentage (NCI-H460): 98.68%
- growth percentage (NCI-H522): 89.37%
- growth percentage (COLO 205): 99.18%
- growth percentage (HCC-2998): 98.52%
- growth percentage (HCT-116): 105.87%
- growth percentage (SF-268): 117.27%
- growth percentage (SF-295): 92.80%
- growth percentage (SF-539): 110.08%
- growth percentage (LOX IMVI): 84.23%
- growth percentage (M14): 109.79%
- growth percentage (SK-MEL-2): 117.11%
- growth percentage (SK-MEL-5): 86.30%
- growth percentage (OVCAR-3): 119.93%
- growth percentage (OVCAR-5): 137.00%
- growth percentage (OVCAR-8): 101.08%
- growth percentage (NCI/ADR-RES): 96.78%
- growth percentage (CAKI-1): 75.67%
- growth percentage (TK-10): 138.45%
- growth percentage (PC-3): 92.73%
- growth percentage (DU-145): 113.91%
- growth percentage (MDA-MB-231/ATCC): 87.66%
- growth percentage (HS 578T): 91.01%
- growth percentage (BT-549): 119.62%

Source: patent publication US20150197492A1, “NOVEL INDENO[1,2-c]QUINOLIN-11-ONE DERIVATIVES, PREPARATION METHOD AND APPLICATION THEREOF” (National Defense Medical Center, priority 2014, published 2015)
